Data set [1] deals with BaF3 cells stably expressing FGFR (avian). The data set is described as follows: BaF3 cell proliferation-promoting effect. Conditions: number of viable cells at the addition concentration (0.001 to 10 nmol/L) giving the largest number; 2 nights; negative control about 100 cells/well. The data set is classed as cell-based. As to the method: (§1) The FGFR phosphorylation ability of the cyclic peptide complex was evaluated using the BaF3 cell proliferation-promoting effect in which FGFR was stably expressed.
(§2) BaF3 cells stably expressing FGFR were established by introducing a vector (human: Sino Biologicals, HG10824-UT, bovine: sequence of Accession No. F1MNW2 was introduced into pCDNA3.1/Hygro(+) Mammalian Expression Vector (Thermo, V87020), porcine: sequence of Accession No. A0A4X1SNN3 was introduced into pCDNA3.1/Hygro(+) Mammalian Expression Vector (Thermo, V87020), and avian: sequence of Accession No. A0A8V0XB17 was introduced into pCDNA3.1/Hygro(+) Mammalian Expression Vector (Thermo, V87020)) into which FGFR gene had been incorporated, into BaF3 cells using NucleoFector (Lonza) and performing drug selection of cells into which the FGFR gene had been introduced using hygromycin.
(§3) The evaluation of the proliferation-promoting effect of BaF3 cells in which FGFR is stably expressed was performed by the following method. First, RPMI-1640 with L-Glutamine and Phenol Red (FUJIFILM Wako Pure Chemical Corporation, 189-02025) and Fetal Bovine Serum (Thermo, 10270-106) were mixed at a volume ratio of 9:1, and then heparin (STEM CELL, 07980) was added thereto such that the final concentration thereof was 8 μg/mL, thereby preparing a culture medium for evaluation (hereinafter, described as RPMI (10% FBS) medium). Next, the BaF3 cells in which FGFR had been stably expressed were washed twice with RPMI (10% FBS) culture medium, suspended in RPMI (10% FBS) culture medium in which the cyclic peptide complex had been dissolved to a final concentration of 0.001 to 10 nmol/L, and seeded in a 384-well plate. In this case, a condition in which the cyclic peptide complex was not added as a negative control was prepared. After culturing at 37° C. (5% CO2) for 2 nights, Hoechst 33342, Trihydrochloride, Trihydrate-10 mg/mL Solution in Water (Thermo, H3570), -Cellstain (registered trademark)-Calcein-AM solution (1 mg/mL DMSO solution) (DOJINDO, C396), and -Cellstain (registered trademark)-PI solution (DOJINDO, P378) were each added to RPMI (10% FBS) culture medium in a volume amount of 1/1,000 at the final concentration, and live/dead staining of the cells were performed by allowing to stand at room temperature for 1 hour, and imaging was performed using a confocal microscope (Yokogawa Electric Corporation, CQ1). The number of viable cells was calculated from the imaging data, and the cell proliferation-promoting effect was evaluated according to the following evaluation criteria. The number of viable cells in the negative control was about 100 cells/well. The evaluation result preferably satisfies the evaluation criteria A, B, or C.
(§4) At an addition concentration of the cyclic peptide complex having the largest number of viable cells, evaluation criteria is as follows.

The subject of data set [2] is BaF3 cells stably expressing FGFR (bovine). The data set is described as follows: BaF3 cell proliferation-promoting effect. The note with it: number of viable cells at the addition concentration (0.001 to 10 nmol/L) giving the largest number; 2 nights; negative control about 100 cells/well. The data set is classed as cell-based. On the procedure: as §1, §2, §3, §4

The test system of data set [3] is BaF3 cells stably expressing FGFR (porcine). In words: BaF3 cell proliferation-promoting effect. It is filed as cell-based. The note with it: number of viable cells at the addition concentration (0.001 to 10 nmol/L) giving the largest number; 2 nights; negative control about 100 cells/well. As to the method:
as §1, §2, §3, §4

The test system of data set [4] is BaF3 cells stably expressing FGFR (human). The data set is described as follows: BaF3 cell proliferation-promoting effect. The data set is classed as cell-based. The note with it: number of viable cells at the addition concentration (0.001 to 10 nmol/L) giving the largest number; 2 nights; negative control about 100 cells/well. On the procedure:
as §1, §2, §3, §4

Data set [5] is described as follows: Molecular stability after alkali treatment, LC. It is filed as physicochemical. The note with it: 0.5 mol/L sodium hydroxide aqueous solution added, room temperature, 3 hours. On the procedure:
In addition, the stability of the cyclic peptide (SEQ ID NO: 450) containing a cysteine residue in the cyclized portion and the cyclic peptide (SEQ ID NO: 442) containing a homocysteine residue in the cyclized portion was compared under the following alkali treatment, which is a more severe condition.
The alkali treatment was performed by the following method. 25 μL of a 0.2 mg/ml cyclic peptide aqueous solution was prepared, 58.8 μL of a 0.5 mol/L sodium hydroxide aqueous solution was added to the aqueous solution, and the mixture was incubated at room temperature for 3 hours to obtain an aqueous solution of the cyclic peptide alkali-treated. The total area of all the peaks in LC/MS of the cyclic peptide before the alkali treatment was set to 100%, and the proportion of the total area of all the peaks in LC/MS of the aqueous solution of the cyclic peptide alkali-treated was determined to calculate the residual rate of the cyclic peptide.
The LC conditions used for the evaluation of molecular stability are the same as those in the measurement of the above-described cyclic peptide treated with a reducing agent.

Bridge positions count the residues as written; N and C are the ends. Ends that are not written are not given here. COCH2 = acetyl group that carries the bridge

Take “457 (QCPQNFINPVQWRYFQHYKNKQCPQNFINPVQWRYFQHYKNK; also: cyclic peptide) [compound 457]”: the “Evaluation result of cell proliferative properties Avian” value in data set [1] is given as “A (The number of viable cells is 1,000 cells/well or more.)”. Moreover, the “Evaluation result of cell proliferative properties Bovine” value in data set [2] is on record as “A (The number of viable cells is 1,000 cells/well or more.)”. In data set [3], the “Evaluation result of cell proliferative properties Porcine” value was “A (The number of viable cells is 1,000 cells/well or more.)”. For the same substance, in data set [4], the “Evaluation result of cell proliferative properties Human” value is “A (The number of viable cells is 1,000 cells/well or more.)”.
With “Y-(C)-EENYLDPEQYQYFIYF-(K(acetyl))-YKKK (YCEENYLDPEQYQYFIYFK(COCH2)YKKK; thioether 2-19) [SEQ ID NO: 450]”, the “residual rate of the cyclic peptide” value in data set [5] was 36%.
Take “456 (QCPQNFINPVQWRYFQHYKNKQCPQNFINPVQWRYFQHYKNK; also: cyclic peptide) [compound 456]”: the “Evaluation result of cell proliferative properties Avian” value in data set [1] is given as “A (The number of viable cells is 1,000 cells/well or more.)”. The “Evaluation result of cell proliferative properties Bovine” value in data set [2] is “A (The number of viable cells is 1,000 cells/well or more.)”. In addition, the “Evaluation result of cell proliferative properties Porcine” value in data set [3] is listed as “A (The number of viable cells is 1,000 cells/well or more.)”. Moreover, the “Evaluation result of cell proliferative properties Human” value in data set [4] is reported as “A (The number of viable cells is 1,000 cells/well or more.)”.
With “Y-(Hcy)-EENYLDPEQYQYFIYF-(K(acetyl))-YKKK (YXEENYLDPEQYQYFIYFKYKKK; homocysteine, acetyl-lysine; Description of Artificial Sequence: Cyclic peptide) [SEQ ID NO: 442]”, the “residual rate of the cyclic peptide” value in data set [5] came out at 61%.
Consider “455 (KCPQNFINPVQWRYFQHYKNGSGSGSSGSSSGSSKCPQNFINPVQWRYFQHYKN; also: cyclic peptide) [compound 455]”, for which the “Evaluation result of cell proliferative properties Avian” value in data set [1] was “C (The number of viable cells is 200 cells/well or more and less than 400 cells/well.)”. The “Evaluation result of cell proliferative properties Bovine” value in data set [2] was “B (The number of viable cells is 400 cells/well or more and less than 1,000 cells/well.)”. Also, the “Evaluation result of cell proliferative properties Porcine” value in data set [3] is listed as “A (The number of viable cells is 1,000 cells/well or more.)”. Moreover, the “Evaluation result of cell proliferative properties Human” value in data set [4] is listed as “A (The number of viable cells is 1,000 cells/well or more.)”.
As for “460 (YCEENYLDPEQYQYFIYFKYKYCEENYLDPEQYQYFIYFKYK; also: cyclic peptide) [compound 460]”, the “Evaluation result of cell proliferative properties Avian” value in data set [1] was “A (The number of viable cells is 1,000 cells/well or more.)”. The “Evaluation result of cell proliferative properties Bovine” value in data set [2] is recorded as “A (The number of viable cells is 1,000 cells/well or more.)”. For the same substance, in data set [3], the “Evaluation result of cell proliferative properties Porcine” value is “A (The number of viable cells is 1,000 cells/well or more.)”. The “Evaluation result of cell proliferative properties Human” value in data set [4] is “A (The number of viable cells is 1,000 cells/well or more.)”.
“458 (QCPQNFINPVQWRYFQHYKNKQCPQNFINPVQWRYFQHYKNK; also: cyclic peptide) [compound 458]”: the “Evaluation result of cell proliferative properties Avian” value in data set [1] is “A (The number of viable cells is 1,000 cells/well or more.)”. In data set [2], the “Evaluation result of cell proliferative properties Bovine” value is “A (The number of viable cells is 1,000 cells/well or more.)”. In addition, the “Evaluation result of cell proliferative properties Porcine” value in data set [3] is listed as “A (The number of viable cells is 1,000 cells/well or more.)”. In data set [4], the “Evaluation result of cell proliferative properties Human” value is “A (The number of viable cells is 1,000 cells/well or more.)”.
As for “459 (QCPQNFINPVQWRYFQHYKNQCPQNFINPVQWRYFQHYKNK; also: cyclic peptide) [compound 459]”, the “Evaluation result of cell proliferative properties Avian” value in data set [1] is “B (The number of viable cells is 400 cells/well or more and less than 1,000 cells/well.)”. Besides, the “Evaluation result of cell proliferative properties Bovine” value in data set [2] is “B (The number of viable cells is 400 cells/well or more and less than 1,000 cells/well.)”. The “Evaluation result of cell proliferative properties Porcine” value in data set [3] is “A (The number of viable cells is 1,000 cells/well or more.)”. In addition, the “Evaluation result of cell proliferative properties Human” value in data set [4] is on record as “A (The number of viable cells is 1,000 cells/well or more.)”.

Source of the values: patent US20260008815A1, “CYCLIC PEPTIDE OR SALT THEREOF, AND USES THEREOF” (FUJIFILM Corporation, priority 2023, published 2026).
